Results: patent US20070155771A1, “Methods and means for treating protein conformational disorders” (priority 2003, published 2007)

Columns and labels:
[1] = test system: COS-7 cells expressing EGFP tagged wild-type HD exon 1 protein with 23 glutamine repeats, EGFP-polyalanine with 7 repeats or empty EGFP; assay: Control constructs (Q23, A7, empty EGFP) in transiently transfected COS-7 cells; type: cell-based, African green monkey; details: 10 mM 3-MA
Protocol: African green monkey kidney cells (COS-7) were grown in Dulbecco's Modified Eagle Medium (DMEM, Sigma) supplemented with 10% Fetal Bovine Serum (FBS), 100 U/ml Penicillin/Streptomycin, 2 mM L-Glutamine and 1 mM Sodium Pyruvate at 37° C., 5% Carbon dioxide. The cells were grown on coverslips in six-well plates for immunofluorescence analysis, or were directly grown in six-well plates to 60-80% confluency for 24 hours for western blot analysis. Transfection was done using LipofectAMINE reagent (Invitrogen) using the manufacturer's protocol. The transfection mixture was replaced by normal culture medium after 5 hours incubation at 37° C. and the transfected cells were analysed by immunofluorescence or immunoblot 48 hours after transfection. […] Equal amounts of water or DMSO were added to the untreated controls, where relevant. The cells on coverslips were rinsed with 1×PBS, fixed with 4% paraformaldehyde in 1×PBS for 20 min and mounted in […] supplemented with 4',6-diamidino-2-phenylindole (DAPI, 3 μg/ml, Sigma) to allow visualisation of nuclear morphology. […] Aggregate formation and nuclear morphology were assessed using a fluorescence microscope. 200 EGFP positive COS-7 cells were selected and the proportion of cells with aggregates was counted. […]

[2] = test system: COS-7 cells expressing an exon 1 fragment of the HD gene with 74 glutamines (Q74); assay: Aggregate formation and abnormal cell nuclei in transiently transfected COS-7 cells expressing Q74; type: cell-based, African green monkey; details: 24 hours post transfection; 0.2 μg/ml rapamycin
[3] = test system: mTOR-dependent TOP-translation; assay: Luciferase reporter assay with non-typical TOP sequence in COS-7 cells co-transfected with Q23 or Q74; type: cell-based, African green monkey
Protocol: (§1) PC12 cells stably expressing Q23 or Q74 were transfected with a luciferase construct having a 5′ untranslated region from the eEF2 gene containing a terminal oligopyrimidine tract (TOP-luciferase) or without the TOP sequence (Control-luciferase) along with β-galactosidase (to control transfection efficiency). Transfected cells were maintained in serum free medium with doxycycline for 36 hours following which the cells were stimulated with 15% serum with or without rapamycin for 3 h. Cells were then lysed and luciferase assays were performed according to standard protocol. COS-7 cells were co-transfected with Q23 or Q74 with control- or TOP-luciferase along with β-gal and experiments were performed as above. […] Experiments were performed in sextuplicate and repeated several times.
The data in FIG. 11C is represented as explained above for FIG. 10C.

[4] = test system: mTOR-dependent TOP-translation; assay: TOP-luciferase reporter assay in PC12 cells stably expressing Q23 or Q74; type: cell-based, rat
Protocol: as §1
Phosphorylation of the ribosomal protein S6 by S6K1 positively regulates the translation initiation of mRNAs containing 5′-terminal oligopyrimidine tracts (5′-TOP), like mRNAs coding for ribosomal proteins and translation elongation factors. A previously validated luciferase reporter assay was used to measure mTOR-dependent TOP-translation (Kim, J. E. & Chen, J. Proc Natl Acad Sci USA 97, 14340-14345 (2000), Schwab, M. S. et al. Mol Cell Biol 19, 2485-2494 (1999)). Rapamycin is a specific inhibitor of mTOR. Comparison of cells for TOP-dependent translation with this assay in the presence or absence of rapamycin allows assessment of the amount of functional cellular mTOR that can be inhibited by rapamycin. In FIG. 10C, each bar represents the difference between the luciferase activities (corrected for transfection efficiency-see methods) in the presence vs. the absence of rapamycin, for a luciferase reporter with a TOP sequence (+TOP) (FIG. 10A) and otherwise identical control construct without the TOP sequence (−TOP) (FIG. 10B).

[5] = cited from earlier work

| Compound | aggregate formation in cells expressing Q23 or A7 [1] | levels of empty EGFP [1] | cell death in Q74-expressing cells [2] | proportions of cells with Q74 aggregates [2] | rapamycin-dependent reduction in luciferase activity (non-typical TOP sequence) ([3]; COS-7 cells transfected with Q23) [%] | rapamycin-dependent reduction in luciferase activity (non-typical TOP sequence) ([3]; COS-7 cells transfected with Q74) | inhibition of TOP-dependent (+TOP) expression of luciferase ([4]; Q23-expressing PC12 cells, after serum stimulation, 3 h) | luciferase activity, control-luciferase construct without the TOP sequence (−TOP) ([4]; Q23 cells) | inhibition of TOP-dependent (+TOP) expression of luciferase ([4]; Q74-expressing PC12 cells) | water solubility [5] |
| --- | --- | --- | --- | --- | --- | --- | --- | --- | --- | --- |
| Cn1cnc(N)c2ncnc1-2 [3-MA, 3-methyl adenine] | did not cause aggregate formation | did not cause any change |  |  |  |  |  |  |  |  |
| rapamycin |  |  | reduced | reduced | 23 | no such effect | about 18% | no inhibitory effect | no such inhibitory effect | poor |
